The test system of assay [1] is human OPN promoter (pOPN1-luc) in A549/OPNluc cells. Briefly: Luciferase assay: luciferase expression under control of OPN promoter. Type of assay: cell-based. The text has this:
A reporter vector pOPN1-luc obtained by inserting a human OPN promoter sequence (−765 to 23) into the multiple cloning site of pGL-3 basic vector (Promega) expresses luciferase when transfected into animal cells. This pOPN1-luc was transfected into a human non-small cell lung cancer-derived cell line A549 together with pPUR (Clontech) that expresses a puromycin resistance gene (puromycin-N-acetyl-transferase gene), and cells that could grow in a puromycin-supplemented medium and expressed luciferase were selected. The selected cells were named A549/OPNluc cells and used for observation of luciferase expression inhibitory effect under control of OPN promoter, as described later.
A test compound was added to a culture liquid containing A549/OPNluc cells to observe its influence on the amount of luciferase expressed in the cells. Here, it can be considered that when the test compound has cytotoxity or cell growth-suppressing effect, the total expression level of luciferase is reduced due to a reduction in the number of living cells that depends on the concentration of the test compound, and therefore the luciferase expression inhibitory effect of the test compound under control of OPN promoter cannot be properly evaluated. For this reason, WST assay for quantification of cell proliferation ability or cell viability by colorimetric measurement was first performed to determine IC50 (concentration for 50% inhibition of cell growth) of the test compound for cell growth. Then, luciferase activity measurement was performed to determine EC50 (concentration for 50% inhibition of luciferase expression) of the test compound for luciferase expression under control of OPN promoter.
The same steps as in the above-described WST assay were performed in which only DMSO (control) or the diluted test compound (sample) solution was added in an amount of 0.5 μL to each well containing the cell suspension to achieve 200-fold dilution, and the solution in each well was mixed with a vortex mixer, and the 96-well plate was incubated in a CO2 incubator (at 37° C. and 5% CO2) for 48±4 hours.
A luciferase reagent was prepared by dissolving Luciferase Assay Substrate (hereinafter, referred to as “LAS”) supplied in Luciferase Assay Systems (Promega: Cat# E1500) with Luciferase Assay Buffer (LAB). 5× Cell Culture Lysis Reagent (hereinafter, referred to as “CCLR”) was diluted with water 5-fold to prepare 1×CCLR.
After the incubation for 48±4 hours, the medium in each well was completely removed, and 50 μL of 1×CCLR was dispensed into each well. The 96-well plate was allowed to stand at room temperature for 30 minutes, and then 1×CCLR in each well was used as an assay sample. The luciferase reagent of 100 μL was placed in a tube for chemiluminescence measurement, and 20 μL of the assay sample was added to the tube and mixed with the luciferase reagent to measure chemiluminescence (Relative Luminescence Intensity: RLU) using Tuner Design Luminometer 20/20 (Promega).
The RLU values of the control wells and the RLU values of the sample wells at each concentration were input into an Excel file, and the percentages of RLU values of the sample wells at each concentration with respect to the average of RLU values of the control wells were determined. From these values, a fitted curve was determined by the method of least squares to calculate EC50.

Assay [2] concerns human non-small cell lung cancer-derived cell line A549. Briefly: Matrix-Invasion assay (Matrigel). It counts as cell-based. The procedure: As a second test for determining whether or not the physiological function of cells induced by OPN production is suppressed by a test compound, Matrix-Invasion assay was performed. In this assay, cups (inserts) whose bottom was covered with a membrane coated with collagen or laminin (Matrigel, BD Bioscience) as an extracellular matrix component and having φ8 μm pores and a 24-well plate for inserting the inserts were prepared. Cells suspended in a serum-free medium were placed in the inside insert, and a medium containing a substance inducing metastasis and invasion of cells (here, fetal calf serum) was injected into each well of the outside 24-well plate to determine the number of cells passing through the Matrigel-coated membrane of the insert and coming into the outside well.
Specifically, a fluorescent dye was introduced into A549 cells invading outside the membrane, and then the cells were separated from the membrane to measure their fluorescence intensity. At the same time, a fluorescent dye was introduced also into a known number of cells for preparing a calibration curve, and a calibration curve was prepared from their fluorescence intensity. Then, the number of invading cells of a test sample containing an unknown number of cells was determined from the fitted curve.
Cancer cells produce OPN by stimulation of fetal calf serum added to the outside medium. However, when OPN is present in the culture liquid, the cells produce Matrix Metalloproteinase (MMP) that is a collagen-degrading enzyme so that Matrigel is dissolved, and in addition, the cells transfer to the outside well due to their improved migration capacity. […]
Cells of a human non-small cell lung cancer-derived cell line A549 were suspended in DMEM medium containing 10% FCS and 1% P/S at 1.8×10^5 cells/mL to obtain a cell suspension. […] This day was counted as Day 0 of operation. […]

Take `CCCCCCCCCCCC(=O)[C@H]1C(=O)O[C@@H](C)C[C@@H]1C` [Chemical formula 3]: the “EC50 value relative to respective IC50 value” in assay [1] (EC50 luciferase assay vs IC50 WST assay) is on record as “½”. Further, in assay [1] (Homo sapiens, 48±4 hours, read-out: EC50 (concentration for 50% inhibition of luciferase expression under control of OPN promoter)), the EC50 turned out to be 15.9 µM. Also, the “total number of invading cells vs control group” value in assay [2] (25 μmol/L, 48±4 hours) is on record as “no significant difference”. Further, in assay [2] (50 μmol/L, 48±4 hours), the “total number of invading cells relative to control group” value was “about half”. Further, the “suppression of matrix invasion vs control group” value in assay [2] (A549 cells, 50 μmol/L, significance level less than 1%) is on record as “significantly suppressed”.

These data come from US9463188B2, “Osteopontin production inhibitor containing dictyopyrone derivative or dihydrodictyopyrone derivative as active ingredient” (TOHOKU UNIVERSITY, priority 2013, dated 2016).
